The text below walks through data of ChEMBL document CHEMBL3526069, “Human pharmacokinetic prediction of UDP-glucuronosyltransferase substrates with an animal scale-up approach” (Drug Metab Dispos, 2011).

The nature of data set [1]: Plasma clearance in po dosed human.
Data set [2] is described as follows: Drug metabolism in bile duct-cannulated rat assessed as glucuronide concentration in bile and urine at 0.2 mg/kg, iv up to 24 hrs by LC/MS/MS analysis. It counts as ADME, organism-based. Details: dose 0.2 mg/kg, route intravenous. The following applies: in vivo.
Data set [3] can be described thus: Drug metabolism in gallbladder-cannulated mouse assessed as glucuronide concentration in bile and urine at 0.2 mg/kg, iv up to 24 hrs by LC/MS/MS analysis. The data set is classed as ADME, organism-based. On the set-up: dose 0.2 mg/kg, route intravenous. The settings on record: in vivo.
Data set [4] in a line: Drug metabolism in bile duct-cannulated dog assessed as glucuronide concentration in bile and urine at 0.2 mg/kg, iv up to 24 hrs by LC/MS/MS analysis. Details: dose 0.2 mg/kg, route intravenous. The following applies: in vivo. It counts as ADME, organism-based, Canis lupus familiaris.
A short description of data set [5]: in vitro. The following applies: mouse, plasma.
Description: Fraction unbound in mouse plasma by ultracentrifugation method
Data set [6] is described as follows: in vitro. The settings on record: rat, plasma.
Description: (§1) Fraction unbound in rat plasma by ultracentrifugation method
Data set [7] can be described thus: in vitro. The settings on record: rhesus monkey, plasma.
Description: Fraction unbound in monkey plasma by ultracentrifugation method
A short description of data set [8]: in vitro. The settings on record: dog, plasma.
Description: Fraction unbound in dog plasma by ultracentrifugation method
The nature of data set [9]: in vitro. The settings on record: human, plasma.
Description: (§2) Fraction unbound in human plasma by ultracentrifugation method
Data set [10] is described as follows: in vitro. The settings on record: mouse.
Description: Ratio of drug level in blood to plasma in mouse
The nature of data set [11]: in vitro. The settings on record: rat.
Description: Ratio of drug level in blood to plasma in rat
A short description of data set [12]: in vitro. The settings on record: rhesus monkey.
Description: Ratio of drug level in blood to plasma in monkey
Data set [13] in a line: in vitro. The following applies: dog.
Description: Ratio of drug level in blood to plasma in dog
Data set [14] in a line: in vitro. The settings on record: human.
Description: Ratio of drug level in blood to plasma in human
The nature of data set [15]: clinical. The following applies: human, in vivo.
A short description of data set [16]: Drug metabolism in bile duct-cannulated cynomolgus monkey assessed as glucuronide concentration in bile and urine at 0.2 mg/kg, iv up to 24 hrs by LC/MS/MS analysis. The settings on record: in vivo.
Data set [17] can be described thus: Plasma clearance in human.
Data set [18] can be described thus: clinical. The following applies: human, in vivo. This is another data set of the same source.
Description: (§3) Volume of distribution at steady state in human
The nature of data set [19]: Drug metabolism in human assessed as glucuronide concentration in urine.
The subject of data set [20] is Plasma. The following applies: rat.
Description: as §1
For data set [21], the species on record is Homo sapiens. The following applies: in vivo.
Description: as §3
For data set [22], the species on record is Homo sapiens. The following applies: in vivo. The source holds these as a separate data set.
The subject of data set [23] is Plasma. The settings on record: human.
Description: as §2

Turning to `CCCc1nc2c(C)cc(-c3nc4ccccc4n3C)cc2n1Cc1ccc(-c2ccccc2C(=O)O)cc1`, in [1] (plasma), the CL/F (in general, the apparent clearance, not corrected for the fraction that reaches the circulation) is 1.07 L/h/kg. In addition, the Fm came out at 0.396 in [2], 0.118 in data set [3], 0.99 in data set [4] and 0.47 in data set [16]. Besides, the unbound share (fraction unbound) (as a rule, the share of the substance not bound to proteins or other matrix) is 0.071 in data set [5]; 0.007 in [6]; 0.008 in data set [7]; 0.018 in [8]; 0.003 in [9]. In addition, the blood plasma ratio was determined as 0.54 in data set [10]; 1.25 in data set [11]; 1.16 in data set [12]; 1.18 in data set [13]; 1.24 in data set [14]. Moreover, the half-life (usually how long it takes for the measured level to halve) in [15] was 7.29 h.

With `O=C([O-])Cc1ccccc1Nc1c(Cl)cccc1Cl.[Na+]` [DICLOFENAC SODIUM], the clearance (in general, the rate of elimination divided by the concentration) in data set [17] (in vivo) was 0.21 L/h/kg. The molecule further yielded an apparent clearance (CL/F) in data set [1] (in vivo) of 0.389 L/h/kg. For the same molecule, the Fm is 0.065 in [2]; 0.261 in [3]; 0.522 in data set [4]; 0.15 in data set [19]; 0.29 in data set [16]. Also, the free fraction (fraction unbound) in data set [5] was determined as 0.005; in [6], 0.006; in data set [7], 0.005; in [8] it was 0.003; in [9] it was 0.003. The blood plasma ratio in [10] stood at 0.67; in data set [11] it was 1.57; in [12], 1.01; in [13], 1.01; in data set [14], 0.71. For the same molecule, the Vd – broadly, the apparent volume that relates the amount in the body to the concentration in plasma or blood – in data set [18] came to 0.22 L/kg. Moreover, in [15], the half-life is 0.726 h.

Take `Cc1ccc(C)c(OCCCC(C)(C)C(=O)O)c1` [GEMFIBROZIL]: the clearance in data set [17] (in vivo) was determined as 0.102 L/h/kg. Besides, the CL/F in data set [1] (in vivo) was found to be 0.104 L/h/kg. The Fm in data set [2] stood at 0.366; in [3], 0.173; in [4], 0.69; in [19], 0.4; in data set [16] it was 0.35. For the same molecule, the fraction unbound was 0.041 in data set [5]; 0.01 in [6]; 0.007 in [7]; 0.004 in data set [8]; 0.005 in data set [9]. For the same molecule, the blood plasma ratio was 0.68 in data set [10]; 0.83 in data set [11]; 0.67 in data set [12]; 0.64 in data set [13]; 0.75 in data set [14]. In addition, the distribution volume (Vd) in [18] worked out at 1.11 L/kg. Further, the half-life in data set [15] is 7.6 h.

As for `O=C(c1ccc(OCCN2CCCCC2)cc1)c1c(-c2ccc(O)cc2)sc2cc(O)ccc12` [RALOXIFENE], the clearance in [17] (plasma) stood at 0.882 L/h/kg. Besides, the Fm was determined as 0.214 in data set [2]; 0.243 in data set [3]; 0.196 in data set [4]; 0.9 in data set [19]; 0.38 in data set [16]. Further, the Fu in [20] came out at 0.004. The Vdss (usually a proportionality between amount in the body and measured concentration, not a real space) in [21] came out at 47 L/kg. The molecule further showed a t1/2 in [22] of 36.9 h. The free fraction (fraction unbound) in [5] came to 0.006; in [7], 0.004; in [8], 0.003; in data set [9], 0.002.

Take `NS(=O)(=O)c1cc(C(=O)O)c(NCc2ccco2)cc1Cl` [FUROSEMIDE]: the Fm is 0.052 in [2]; 0.005 in [3]; 0.17 in data set [4]; 0.14 in data set [19]; 0.671 in data set [16].

The molecule `COc1c(C)c2c(c(O)c1C/C=C(\C)CCC(=O)O)C(=O)OC2` [MYCOPHENOLIC ACID] returned a clearance in data set [17] (plasma) of 0.199 L/h/kg. The molecule also yielded a CL/F in data set [1] (plasma) of 0.212 L/h/kg. Also, the Fm in data set [2] came to 0.096; in data set [3], 0.966; in [4], 0.99; in data set [19] it was 0.9; in data set [16], 0.54. The same molecule displayed a Fu in [23] of 0.003. For the same molecule, the free fraction (fraction unbound) in data set [5] came to 0.028; in data set [6], 0.004; in [7] it was 0.011; in [8], 0.003. For the same molecule, the blood plasma ratio in [10] was 0.81; in data set [11], 0.94; in [12] it was 0.97; in data set [13], 0.75; in data set [14], 0.69. Also, the volume of distribution (Vd) in data set [18] is 4.75 L/kg. Also, in [15], the half-life was 16.6 h.

With `O=C1Nc2ccc(Cl)cc2C(c2ccccc2Cl)=NC1O` (stereo not drawn) [LORAZEPAM], in data set [17] (plasma), the clearance came to 0.0726 L/h/kg. The same molecule gave a CL/F in data set [1] (plasma) of 0.0726 L/h/kg. Further, the Fm was 0.085 in [2]; 0.436 in [3]; 0.785 in [4]; 0.81 in [19]; 0.53 in [16]. The fraction unbound in data set [5] came to 0.158; in data set [6], 0.09; in [7], 0.103; in data set [8] it was 0.073; in [9], 0.057. Further, the blood plasma ratio in [10] was found to be 0.92; in data set [11], 1.09; in [12], 0.87; in data set [13], 0.77; in data set [14], 1.14. In data set [15], this molecule showed a half-life of 12.4 h.

`Cc1cn([C@H]2C[C@H](N=[N+]=[N-])[C@@H](CO)O2)c(=O)[nH]c1=O` [ZIDOVUDINE] registered an apparent clearance CL/F in data set [1] (plasma) of 2 L/h/kg. For the same molecule, the Fm worked out at 0.02 in data set [2]; 0.034 in data set [3]; 0.134 in data set [4]; 0.85 in data set [19]; 0.08 in data set [16]. For the same molecule, the fraction unbound in data set [5] stood at 0.896; in data set [6] it was 0.734; in data set [8] it was 0.827; in data set [9], 0.695. The same molecule had a half-life in data set [15] of 0.832 h.

In the case of `CC(C(=O)O)c1cccc(C(=O)c2ccccc2)c1` (stereo not drawn) [KETOPROFEN], the results for the Fm in data set [3] and in data set [4] were 0.01 and 0.163, respectively.

`CN(C)CCCN1c2ccccc2CCc2ccccc21.Cl` [IMIPRAMINE HYDROCHLORIDE]: the Fm in data set [2] amounted to 0.014; in data set [4] it was 0.005; in data set [19], 0.1; in data set [16], 0.04. Besides, the fraction unbound is 0.063 in data set [5], 0.03 in [7] and 0.104 in data set [9]. The molecule further displayed a volume of distribution (Vd) in [18] of 12 L/kg. The half-life in data set [15] was 10.7 h.

In data set [17] (plasma), `C[C@H]1COc2c(N3CCN(C)CC3)c(F)cc3c(=O)c(C(=O)O)cn1c23.Cl` [LEVOFLOXACIN HYDROCHLORIDE] displayed a clearance of 0.114 L/h/kg. The same molecule yielded an apparent clearance CL/F in [1] (plasma) of 0.114 L/h/kg. The Fm in data set [2] is 0.644; in [3], 0.229; in data set [4] it was 0.061; in data set [19], less than 0.015; in data set [16], 0.82. In addition, the unbound share (fraction unbound) in [6] stood at 0.826; in [7], 0.871; in data set [8], 0.922; in [9] it was 0.784. This molecule also had a Vd in data set [18] of 1.2 L/kg. In data set [15], this molecule had a half-life of 7.3 h.

`COc1ccc2c(c1)c(CC(=O)O)c(C)n2C(=O)c1ccc(Cl)cc1` [INDOMETHACIN] gave a clearance in data set [17] (plasma) of 0.0948 L/h/kg. The molecule further had a CL/F in [1] (plasma) of 0.0948 L/h/kg. The Fm in data set [2] came out at 0.004; in data set [3], 0.001; in [4], 0.01; in data set [19], 0.217; in [16], 0.94. The molecule also showed a Fu in data set [23] of 0.1. In addition, the unbound share (fraction unbound) turned out to be 0.009 in data set [5], 0.004 in [6], 0.005 in data set [7] and 0.005 in [8]. In addition, the blood plasma ratio in data set [10] was 0.46; in data set [11], 0.97; in data set [12], 1.06; in data set [13] it was 0.65; in data set [14], 0.98. Besides, in data set [18], the volume of distribution (Vd) is 0.925 L/kg. In [15], this molecule showed a half-life of 6.77 h.
